Format in all cases: functional
The target in assay [1] is T1, Apoptotic protease-activating factor 1 (Homo sapiens, UniProt O14727).
T1 sequence (O14727 whole entry): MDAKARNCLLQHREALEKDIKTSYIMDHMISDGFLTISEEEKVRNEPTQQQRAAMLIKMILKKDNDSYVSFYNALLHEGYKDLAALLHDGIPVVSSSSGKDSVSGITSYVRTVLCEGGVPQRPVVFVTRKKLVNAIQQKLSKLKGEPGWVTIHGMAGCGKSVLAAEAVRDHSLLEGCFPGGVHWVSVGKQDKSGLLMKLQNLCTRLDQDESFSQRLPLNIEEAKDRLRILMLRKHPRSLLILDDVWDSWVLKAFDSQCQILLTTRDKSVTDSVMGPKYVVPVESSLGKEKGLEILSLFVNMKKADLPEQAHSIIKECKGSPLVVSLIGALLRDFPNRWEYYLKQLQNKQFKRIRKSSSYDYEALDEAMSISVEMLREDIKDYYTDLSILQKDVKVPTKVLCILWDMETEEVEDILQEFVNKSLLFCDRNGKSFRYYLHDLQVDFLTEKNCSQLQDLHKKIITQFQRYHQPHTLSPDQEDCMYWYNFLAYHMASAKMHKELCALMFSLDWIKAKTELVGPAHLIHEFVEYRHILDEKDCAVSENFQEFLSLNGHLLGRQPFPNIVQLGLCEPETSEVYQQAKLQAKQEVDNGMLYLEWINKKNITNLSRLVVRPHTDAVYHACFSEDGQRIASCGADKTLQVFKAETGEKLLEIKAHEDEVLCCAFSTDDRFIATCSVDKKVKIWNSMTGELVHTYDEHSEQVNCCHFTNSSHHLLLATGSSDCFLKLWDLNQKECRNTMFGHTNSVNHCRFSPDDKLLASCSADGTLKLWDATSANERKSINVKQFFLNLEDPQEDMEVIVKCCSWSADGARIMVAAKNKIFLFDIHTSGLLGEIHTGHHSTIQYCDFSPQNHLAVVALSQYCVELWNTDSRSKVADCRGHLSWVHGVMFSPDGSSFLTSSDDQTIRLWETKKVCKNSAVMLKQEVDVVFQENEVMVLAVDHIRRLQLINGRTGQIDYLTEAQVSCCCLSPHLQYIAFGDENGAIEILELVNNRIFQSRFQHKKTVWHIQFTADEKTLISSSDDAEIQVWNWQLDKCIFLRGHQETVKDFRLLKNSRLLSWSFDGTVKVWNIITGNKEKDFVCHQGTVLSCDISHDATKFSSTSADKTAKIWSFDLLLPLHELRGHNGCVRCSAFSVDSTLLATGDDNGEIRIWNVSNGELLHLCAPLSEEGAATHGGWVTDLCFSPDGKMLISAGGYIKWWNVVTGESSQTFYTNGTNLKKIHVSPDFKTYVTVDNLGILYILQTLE
The assay can be described thus: SAR analysis of small molecule Activators of Apaf-1 in a Fluorescent assay - set 2. The conditions noted are these: read-out: EC50_Mean.

Assay [2] deals with T1, Apoptotic protease-activating factor 1. The assay can be described thus: activation of Apaf-1 mediated apoptosis – fluorescent, uHTS hits, dose response (AID 588554).
Assay [3] has the same target. The assay can be described thus: SAR analysis of small molecule Activators of Apaf-1 in a Fluorescent assay. The conditions noted are these: read-out: EC50_Mean.
Assay [4] is described as follows: SAR analysis of small molecule activators of Apaf-1 using a LZ-Caspase-9/Caspase-3 Fluorescent Selectivity assay - Set 2. The conditions noted are these: read-out: EC50_Mean.
Assay [5] concerns the target Benomyl/methotrexate resistance protein (Candida albicans, UniProt P28873). Nature of the assay: Candida albicans Mdr1 pump inhibition curves – singleplex, Cherry Pick1 hits, dose response (AID 588608).
In assay [6] the target is T2, Multidrug resistance protein CDR2 (Candida albicans (strain SC5314 / ATCC MYA-2876) (Yeast), UniProt P78595).
T2 sequence (P78595 whole entry): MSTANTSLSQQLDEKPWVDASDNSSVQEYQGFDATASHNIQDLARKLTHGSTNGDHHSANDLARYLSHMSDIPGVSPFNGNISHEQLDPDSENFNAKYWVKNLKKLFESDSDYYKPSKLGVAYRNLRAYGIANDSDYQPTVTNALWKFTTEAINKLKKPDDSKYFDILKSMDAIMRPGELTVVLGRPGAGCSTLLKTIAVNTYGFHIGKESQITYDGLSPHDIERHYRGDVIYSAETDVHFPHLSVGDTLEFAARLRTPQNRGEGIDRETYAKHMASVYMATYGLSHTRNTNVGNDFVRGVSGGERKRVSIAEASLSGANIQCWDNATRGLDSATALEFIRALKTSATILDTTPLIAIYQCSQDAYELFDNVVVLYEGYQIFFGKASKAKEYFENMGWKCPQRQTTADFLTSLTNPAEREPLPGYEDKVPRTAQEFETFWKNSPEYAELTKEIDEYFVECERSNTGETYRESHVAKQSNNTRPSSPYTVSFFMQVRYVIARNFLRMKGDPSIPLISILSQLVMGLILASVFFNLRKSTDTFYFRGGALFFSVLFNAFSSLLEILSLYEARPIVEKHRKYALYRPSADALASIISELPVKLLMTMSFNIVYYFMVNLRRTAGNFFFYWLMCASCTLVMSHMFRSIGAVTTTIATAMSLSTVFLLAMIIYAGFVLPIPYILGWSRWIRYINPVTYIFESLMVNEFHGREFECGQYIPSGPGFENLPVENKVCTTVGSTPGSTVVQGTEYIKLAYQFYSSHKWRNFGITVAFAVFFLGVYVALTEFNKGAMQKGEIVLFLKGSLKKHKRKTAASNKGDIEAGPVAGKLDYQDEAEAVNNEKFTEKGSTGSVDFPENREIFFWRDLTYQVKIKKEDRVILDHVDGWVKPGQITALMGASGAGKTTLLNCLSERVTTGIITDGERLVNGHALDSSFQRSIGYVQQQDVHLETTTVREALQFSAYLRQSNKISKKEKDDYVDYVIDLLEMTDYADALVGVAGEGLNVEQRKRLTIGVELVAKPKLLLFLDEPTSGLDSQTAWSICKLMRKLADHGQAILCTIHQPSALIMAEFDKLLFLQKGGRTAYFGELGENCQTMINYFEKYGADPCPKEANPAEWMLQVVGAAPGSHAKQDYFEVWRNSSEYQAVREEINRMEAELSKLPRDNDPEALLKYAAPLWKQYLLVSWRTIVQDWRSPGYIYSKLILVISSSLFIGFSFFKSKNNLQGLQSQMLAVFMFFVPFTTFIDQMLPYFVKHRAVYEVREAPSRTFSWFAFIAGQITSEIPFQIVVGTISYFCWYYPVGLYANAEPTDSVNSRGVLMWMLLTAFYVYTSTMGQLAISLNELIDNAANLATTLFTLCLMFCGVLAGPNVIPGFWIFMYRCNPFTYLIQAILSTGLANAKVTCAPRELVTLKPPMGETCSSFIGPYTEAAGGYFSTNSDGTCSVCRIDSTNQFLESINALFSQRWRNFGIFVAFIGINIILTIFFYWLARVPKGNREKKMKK
The assay can be described thus: blockers of Nile Red efflux by Candida CDR2 – S. cerevisiae AD1-8u, singleplex, Cherry Pick2 set, dose response (AID 623994). As to conditions: read-out: EC50_MICROM.

Assay [7] deals with T3, Multidrug resistance protein CDR1 (Candida albicans, UniProt P43071). The assay can be described thus: inhibition of Nile Red efflux via Candida CDR1 – S. cerevisiae AD1-8u, singleplex, Cherry Pick1 hits, dose response (AID 588606).
T3 sequence (P43071 whole entry, looked up): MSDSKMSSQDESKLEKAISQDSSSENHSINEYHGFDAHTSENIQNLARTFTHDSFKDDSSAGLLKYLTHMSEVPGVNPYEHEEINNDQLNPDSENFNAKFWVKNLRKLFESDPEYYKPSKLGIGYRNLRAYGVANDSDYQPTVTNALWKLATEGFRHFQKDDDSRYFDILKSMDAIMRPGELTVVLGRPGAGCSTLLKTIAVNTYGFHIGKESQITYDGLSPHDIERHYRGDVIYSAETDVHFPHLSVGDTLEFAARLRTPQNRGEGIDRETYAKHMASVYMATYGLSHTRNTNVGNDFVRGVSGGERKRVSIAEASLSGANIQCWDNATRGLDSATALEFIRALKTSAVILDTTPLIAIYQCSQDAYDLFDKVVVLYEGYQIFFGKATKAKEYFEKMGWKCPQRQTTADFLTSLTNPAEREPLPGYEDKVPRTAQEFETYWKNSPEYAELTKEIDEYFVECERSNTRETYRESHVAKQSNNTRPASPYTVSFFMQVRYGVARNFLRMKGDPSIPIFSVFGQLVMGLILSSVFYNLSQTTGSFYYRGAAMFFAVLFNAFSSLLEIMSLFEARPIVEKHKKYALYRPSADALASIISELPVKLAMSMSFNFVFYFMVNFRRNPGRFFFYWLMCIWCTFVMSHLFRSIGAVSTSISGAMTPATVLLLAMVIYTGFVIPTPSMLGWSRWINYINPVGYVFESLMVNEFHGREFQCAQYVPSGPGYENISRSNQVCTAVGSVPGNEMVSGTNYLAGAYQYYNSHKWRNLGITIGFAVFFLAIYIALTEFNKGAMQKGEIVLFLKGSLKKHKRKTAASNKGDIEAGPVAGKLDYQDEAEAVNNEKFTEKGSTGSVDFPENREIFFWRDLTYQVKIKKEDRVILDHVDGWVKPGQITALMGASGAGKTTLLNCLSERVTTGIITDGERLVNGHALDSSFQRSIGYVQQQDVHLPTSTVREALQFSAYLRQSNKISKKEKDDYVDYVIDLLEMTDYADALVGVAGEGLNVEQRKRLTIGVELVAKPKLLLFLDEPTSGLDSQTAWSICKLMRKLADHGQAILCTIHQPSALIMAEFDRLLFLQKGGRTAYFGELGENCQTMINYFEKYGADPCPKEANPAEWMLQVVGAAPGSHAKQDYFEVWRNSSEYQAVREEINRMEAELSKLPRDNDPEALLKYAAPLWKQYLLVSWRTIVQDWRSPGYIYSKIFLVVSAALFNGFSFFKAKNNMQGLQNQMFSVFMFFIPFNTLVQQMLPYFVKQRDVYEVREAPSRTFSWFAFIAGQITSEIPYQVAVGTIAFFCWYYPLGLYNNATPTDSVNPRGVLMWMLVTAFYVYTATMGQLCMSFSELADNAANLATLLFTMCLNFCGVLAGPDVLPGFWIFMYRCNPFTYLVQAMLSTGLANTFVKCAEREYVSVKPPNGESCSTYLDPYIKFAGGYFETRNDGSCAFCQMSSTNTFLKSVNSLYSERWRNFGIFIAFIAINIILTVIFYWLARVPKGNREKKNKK
For assay [8], the target named is T3, Multidrug resistance protein CDR1. The assay can be described thus: Candida albicans Cdr1 pump inhibition curves – singleplex, Cherry Pick2 set, dose response (AID 623996). The conditions noted are these: read-out: EC50_MICROM.
Assay [9] has as its target T2, Multidrug resistance protein CDR2. Nature of the assay: inhibition of Nile Red efflux via Candida CDR2 – S. cerevisiae AD1-8u, singleplex, Cherry Pick1 hits, dose response (AID 588604).
Assay [10] addresses Neuropeptides B/W receptor type 1 (Homo sapiens, UniProt P48145). Nature of the assay: human NPBW1 receptor blockade, IC50 – cell-based, fluorescence, dose response, set 6, late-stage follow-up (AID 588583).
In assay [11] the target is Melanin-concentrating hormone receptor 1 (Homo sapiens, UniProt Q99705). The assay can be described thus: Late-stage fluorescence-based counterscreen for antagonists of the G-protein coupled receptor 7 (GPR7): cell-based dose response assay to identify antagonists of the melanin-concentrating hormone receptor 1 (MCHR1) Set 6. (The purpose of a counterscreen is to sort out artefacts and off-target activity.)
Sequence of Melanin-concentrating hormone receptor 1 (Q99705 whole entry): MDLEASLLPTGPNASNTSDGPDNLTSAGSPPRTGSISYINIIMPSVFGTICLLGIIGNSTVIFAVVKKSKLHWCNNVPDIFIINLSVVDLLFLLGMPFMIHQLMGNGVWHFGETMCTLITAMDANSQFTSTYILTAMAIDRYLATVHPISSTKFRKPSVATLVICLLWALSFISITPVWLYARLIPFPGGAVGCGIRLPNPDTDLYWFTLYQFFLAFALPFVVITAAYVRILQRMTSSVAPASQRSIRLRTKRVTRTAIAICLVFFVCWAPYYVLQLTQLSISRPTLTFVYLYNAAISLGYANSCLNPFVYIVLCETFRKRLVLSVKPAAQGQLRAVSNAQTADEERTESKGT

Assay [12] addresses T4, High affinity choline transporter 1 (Homo sapiens, UniProt Q9GZV3).
T4 sequence (Q9GZV3 whole entry): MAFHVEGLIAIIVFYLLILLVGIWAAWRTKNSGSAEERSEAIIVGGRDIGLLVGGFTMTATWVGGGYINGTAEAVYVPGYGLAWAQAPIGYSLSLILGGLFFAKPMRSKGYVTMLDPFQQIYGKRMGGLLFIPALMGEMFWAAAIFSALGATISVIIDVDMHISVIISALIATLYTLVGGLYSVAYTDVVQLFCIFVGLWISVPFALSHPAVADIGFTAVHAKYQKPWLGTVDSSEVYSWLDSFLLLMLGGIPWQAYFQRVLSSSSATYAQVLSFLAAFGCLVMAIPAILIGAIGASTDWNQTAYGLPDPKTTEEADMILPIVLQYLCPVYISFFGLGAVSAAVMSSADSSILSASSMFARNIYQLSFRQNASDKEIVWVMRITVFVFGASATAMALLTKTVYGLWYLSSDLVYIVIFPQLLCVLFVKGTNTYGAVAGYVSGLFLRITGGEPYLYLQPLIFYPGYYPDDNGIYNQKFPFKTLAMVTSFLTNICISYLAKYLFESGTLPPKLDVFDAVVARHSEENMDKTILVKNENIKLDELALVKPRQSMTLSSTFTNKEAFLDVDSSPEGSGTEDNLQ
The assay can be described thus: human choline transporter blockers, potency – cell-based, 10-point CRC, membrane potential dye, dose response (AID 588401).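 Note: membrane potential dye fluorescence of choline-evoked depolarization via CHT.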

For assay [13], the target named is T4, High affinity choline transporter 1. The assay can be described thus: human choline transporter blockers, potency – cell-based, 5-point CRC, membrane potential dye, dose response (AID 504840).

Several values for one entry are separate records, joined by “and”; a condition that tells them apart may be missing. Identical values can stand only once. Activity calls are given as the source filed them. Bounds are passed on as bounds.

Sequence of Benomyl/methotrexate resistance protein (P28873 whole entry): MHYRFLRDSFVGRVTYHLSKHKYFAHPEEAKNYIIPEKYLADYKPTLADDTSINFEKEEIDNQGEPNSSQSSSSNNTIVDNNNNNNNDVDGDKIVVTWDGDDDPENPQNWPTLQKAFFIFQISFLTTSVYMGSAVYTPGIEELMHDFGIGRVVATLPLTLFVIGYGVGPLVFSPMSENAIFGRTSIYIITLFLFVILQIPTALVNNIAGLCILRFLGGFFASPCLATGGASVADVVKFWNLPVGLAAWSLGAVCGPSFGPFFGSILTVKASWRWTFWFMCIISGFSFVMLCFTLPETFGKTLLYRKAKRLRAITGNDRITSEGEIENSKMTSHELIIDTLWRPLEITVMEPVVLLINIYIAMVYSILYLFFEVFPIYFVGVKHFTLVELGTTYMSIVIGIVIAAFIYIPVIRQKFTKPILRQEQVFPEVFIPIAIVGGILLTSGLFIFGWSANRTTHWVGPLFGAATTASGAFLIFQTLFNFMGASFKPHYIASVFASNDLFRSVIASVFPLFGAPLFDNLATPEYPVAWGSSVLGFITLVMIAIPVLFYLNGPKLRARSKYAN
Sequence of Neuropeptides B/W receptor type 1 (P48145 whole entry): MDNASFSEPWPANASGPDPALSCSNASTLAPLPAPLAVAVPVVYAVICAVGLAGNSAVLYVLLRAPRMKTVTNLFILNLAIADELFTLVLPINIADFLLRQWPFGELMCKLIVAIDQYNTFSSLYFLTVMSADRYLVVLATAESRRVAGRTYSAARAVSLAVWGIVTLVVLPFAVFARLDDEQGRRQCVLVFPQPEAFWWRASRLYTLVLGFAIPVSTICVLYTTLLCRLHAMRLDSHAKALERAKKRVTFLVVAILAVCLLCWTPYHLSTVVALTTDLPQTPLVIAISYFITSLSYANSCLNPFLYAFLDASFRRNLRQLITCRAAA

Consider `CC(Cc1c[nH]c2ccccc12)C(=O)O` (stereo not drawn), for which the EC50 was 9.48 µM (active) and 8.03 µM (active) in [1]; 2.25 µM (active) in [2]; 8.95 µM (active) in assay [3]; > 99 µM (inactive) and > 100 µM (inactive) in [4].

Turning to `COc1ccc2sc(-c3ccccc3OC)c(-c3ccc(OCCN(C)C)cc3)c2c1`, the EC50 in assay [5] was 10.5 µM (active); in assay [6], 5.43 µM (active); in [7] it was 13.3 µM (active); in assay [8], 20.1 µM (active); in [9], 10.2 µM (active).

`N#CC(c1ccsc1)c1c(Br)cnn(Cc2cccc3ccccc23)c1=O` (stereo not drawn): the IC50 in assay [10] and in assay [11] was 0.417 µM (active) in each case.

Regarding `CCOCCCNS(=O)(=O)c1ccc(NC(=O)c2ccc([N+](=O)[O-])cc2Cl)cc1`, the IC50 in [12] was 0.501 µM (active); in assay [13], 1.45 µM (active).

One may read the IC50 as the point on the concentration scale where inhibition reaches its midpoint.
